Holding throughout (format): in vivo
Test [1] relates to Spodoptera exigua (lesser army worm - larvae). As to the kind of experiment: Residual test, lesser army worm - larvae (SP), Cotton leaf. Particulars: 72 h, 3 days, read-out: SP grading of mortality. As for the experimental part: (§1) The activity of the Product was determined using a variety of insect pests. The Product was used in the form of liquid preparations containing from 100 to 500 parts per million (ppm) by weight of the Product. The preparations were made by dissolving the Product in acetone and diluting the solutions with water containing 0.1% by weight of a wetting agent sold under the trade name "SYNPERONIC" NX until the liquid preparations contained the required concentration of the Product. "SYNPERONIC" is a Registered Trade Mark.
(§2) The test procedure adopted with regard to each pest was basically the same and comprised supporting a number of the pests on a medium which was usually a host plant or a foodstuff on which the pests feed, and treating either or both the pests and the medium with the preparations. The mortality of the pests was then assessed at periods usually varying from one to seven days after the treatment.
(§3) The results of the tests are given in Table III for each of the Products, at the rate in parts per million given in the second column as a grading of mortality designated as A, B or C wherein A indicates 80-100% mortality or knockdown (70-100% for Meloidogyne incognita), B indicates 50-79% mortality knockdown or knockdown (50-69% for Meloidogyne incognita) and C indicates less than 50% mortality or knockdown.
(§4) In Table III the pest organism used is designated by a letter code and the pests species, the support medium or food, and the type and duration of test is given in Table II.
(lesser army worm - larvae)

Test [2] deals with Tetranychus urticae (spider mites - adult). As to the kind of experiment: Contact test, spider mites - adult (TUa), French bean leaf. The note with it: 72 h, 3 days, read-out: TUA grading of mortality. As to the method:
as §1, with “Mark. The test procedure adopted with regard to each pest was basically the same and comprised supporting a number of the pests on a medium which was usually a host plant or a foodstuff on which the pests feed, and treating either or both the pests and the medium with the preparations. The mortality of the pests was then assessed at periods usually varying from one to seven days after the treatment.” for “Mark.”

Test [3] has as its system Myzus persicae (aphids). The test can be described thus: Contact test, aphids (MP), Chinese Cabbage leaf. Particulars: 72 h, 3 days, read-out: MP grading of mortality. As for the experimental part:
The activity of the Product was determined using a variety of insect pests. The Product was used in the form of liquid preparations containing from 100 to 500 parts per million (ppm) by weight of the Product. The preparations were made by dissolving the Product in acetone and diluting the solutions with water containing 0.1% by weight of a wetting agent sold under the trade name "SYNPERONIC" NX until the liquid preparations contained the required concentration of the Product. "SYNPERONIC" is a Registered Trade Mark. The test procedure adopted with regard to each pest was basically the same and comprised supporting a number of the pests on a medium which was usually a host plant or a foodstuff on which the pests feed, and treating either or both the pests and the medium with the preparations. The mortality of the pests was then assessed at periods usually varying from one to seven days after the treatment. […] In Table III the pest organism used is designated by a letter code and the pests species, the support medium or food, and the type and duration of test is given in Table II.

For test [4], the system named is Musca domestica (houseflies - adults). As to the kind of experiment: Knockdown test, houseflies - adults (MD/KD), Cotton wool/sugar. Particulars: 4 hours, read-out: MD/KD grading of knockdown. As for the experimental part:
as §1, §2
In the case of the species Musca domestica (housefly), an additional assessment to determine the knockdown effect of the compounds was performed.
as §4

Test [5] deals with Meloidogyne incognita (Tomato root knot eelworm - larvae). The test can be described thus: Residual test, Tomato root knot eelworm - larvae (MI), Semi in-vitro. Particulars: 168 h, application rate is half that recorded, 7 days, read-out: MI grading of mortality; for mortality at 125 µg/mL: rate 250 ppm; for mortality at 250 µg/mL: rate column 500 ppm.
Test [6] deals with Nilaparvata lugens (brown plant hopper - nymphs). The test can be described thus: Contact test, brown plant hopper - nymphs (NL), Rice plant. The note with it: 72 h, 3 days, read-out: NL grading of mortality. As for the experimental part: (§5) The activity of the Product was determined using a variety of insect pests. The Product was used in the form of liquid preparations containing from 100 to 500 parts per million (ppm) by weight of the Product. The preparations were made by dissolving the Product in acetone and diluting the solutions with water containing 0.1% by weight of a wetting agent sold under the trade name "SYNPERONIC" NX until the liquid preparations contained the required concentration of the Product. "SYNPERONIC" is a Registered Trade Mark. The test procedure adopted with regard to each pest was basically the same and comprised supporting a number of the pests on a medium which was usually a host plant or a foodstuff on which the pests feed, and treating either or both the pests and the medium with the preparations. The mortality of the pests was then assessed at periods usually varying from one to seven days after the treatment.

The test system of test [7] is Tetranychus urticae (spider mites - ova). The test can be described thus: Contact test, spider mites - ova (TUe), French bean leaf. The note with it: 144 h, 6 days, read-out: TUE grading of mortality. As to the method: as §5
Test [8] has as its system Heliothis virescens (tobacco budworm - larvae). The test can be described thus: Residual test, tobacco budworm - larvae (HV), Cotton leaf. The note with it: 72 h, read-out: HV grading of mortality. As for the experimental part: as §1, §2, §3, §4
(tobacco budworm - larvae)

Test [9] relates to Blattella germanica (cockroach nymphs). The test can be described thus: Residual test, cockroach nymphs (BG), Plastic pot. Particulars: 72 h, 3 days, read-out: BG grading of mortality. As to the method:
as §5

Test [10] deals with Musca domestica (houseflies - adults). As to the kind of experiment: Contact test, houseflies - adults (MD), Cotton wool/sugar. The note with it: 24 h, 1 day, read-out: MD grading of mortality. As for the experimental part:
as §5

The test system of test [11] is Diabrotica balteata (rootworm larvae). The test can be described thus: Residual test, rootworm larvae (DB), Filter paper/maize seed. Particulars: 72 h, 3 days, read-out: DB grading of mortality. As for the experimental part:
as §5

The structures appear in SMILES notation.

On to `FC(F)(F)Oc1ccc(C(F)(CCCc2cccc(Oc3ccccc3)c2)C(F)(F)F)cc1` (racemic) [Compound 60, 1,1,1,2-tetrafluoro-2-(4-trifluoromethoxyphenyl)-5-(3-phenoxyphenyl)pentane], for which the mortality at 250 ppm in test [1], in test [2], in test [3], in [6], in test [7] and in [8] was 80 to 100% each time. Besides, the mortality at 250 ppm in test [9], in test [10] and in [11] was 80 to 100% each time. Besides, in [4], the pest or weed control at 250 ppm fell in the range of 80 to 100%. Moreover, in test [5], the mortality at 125 µg/mL is below 50%.
As to `FC(F)(F)Oc1ccc(C(Cl)(CCCc2cccc(Oc3ccccc3)c2)C(F)(F)F)cc1` (racemic) [Compound 62, 1,1,1-trifluoro-2-chloro-2-(4-trifluoromethoxyphenyl)-5-(3-phenoxyphenyl)pentane], the mortality at 250 ppm in test [1], in test [2], in test [3], in [6], in test [7] and in test [8] was below 50% in each case. For the same compound, the mortality at 250 ppm in test [9], in [10] and in [11] was below 50% throughout. Further, in test [4], the pest or weed control at 250 ppm was below 50%. In addition, the mortality at 125 µg/mL in [5] was below 50%.
Take `FC(F)C(F)(F)Oc1ccc(C(CCCc2cccc(Oc3ccccc3)c2)C(F)(F)F)cc1` (racemic) [Compound 63, 1,1,1-trifluoro-2-[4-(1,1,2,2-tetrafluoroethoxy)phenyl]-5-(3-phenoxyphenyl)pentane]: the mortality at 500 ppm in test [1], in test [2], in [3], in test [6], in test [7] and in [8] was 80 to 100% in each case. Also, the mortality at 500 ppm in [9], in [10] and in test [11] was 80 to 100% each time. The pest or weed control at 500 ppm in test [4] lay in the range of 80 to 100%. In addition, in [5], the mortality at 250 µg/mL was below 50%.
Regarding `CCOc1c(F)cc(C(CCCc2ccc(F)c(Oc3ccccc3)c2)C(F)(F)F)cc1F` (racemic) [Compound 64, 1,1,1-Trifluoro-2-(3,5-difluoro-4-ethoxyphenyl)-5-(4-fluoro-3-phenoxyphenyl)pentane], the mortality at 500 ppm in test [1], in [2], in [3], in test [6], in [7] and in [8] was 80 to 100% throughout. Moreover, the mortality at 500 ppm fell in the range of 80 to 100% in test [9], 80 to 100% in [10] and 50 to 79% in [11]. Also, in [4], the pest or weed control at 500 ppm lay in the range of 80 to 100%. For the same compound, the mortality at 250 µg/mL in [5] was below 50%.
As to `CCOc1ccc(C(CCCc2cccc(Oc3ccccc3)c2)C(F)F)cc1` (racemic) [Compound 66, 1,1-Difluoro-2-(4-ethoxyphenyl)-5-(3-phenoxyphenyl)pentane], the mortality at 500 ppm in [1] was 80 to 100%; in [2], below 50%; in test [3], 80 to 100%; in test [6], 80 to 100%; in test [7], below 50%; in test [8] it was 80 to 100%. The mortality at 500 ppm in test [9], in test [10] and in [11] was 80 to 100% each time. In addition, in [4], the pest or weed control at 500 ppm was below 50%. Also, in test [5], the mortality at 250 µg/mL was below 50%.
For `FC(F)(F)C(CCCc1cccc(Oc2ccccc2)c1)c1ccc(OC(F)(F)C(F)(F)Br)cc1` (racemic) [Compound 68, 1,1,1-trifluoro-2-[4-(2-bromo-1,1,2,2-tetrafluoroethoxy)phenyl]-5-(3-phenoxyphenyl)-pentane], the mortality at 500 ppm was 50 to 79% in test [1]; 80 to 100% in [2]; below 50% in test [3]; 80 to 100% in test [6]; 80 to 100% in test [7]; below 50% in test [8]. In addition, the mortality at 500 ppm in test [9] was 80 to 100%; in [10] it was below 50%; in [11], 80 to 100%. The pest or weed control at 500 ppm in test [4] was below 50%. For the same compound, the mortality at 250 µg/mL in test [5] is below 50%.
Take `CCOc1ccc(C(CCCc2cccc(Oc3ccccc3)c2)C(F)(F)Cl)cc1` (racemic) [Compound 69, 1,1-Difluoro-1-chloro-2-(4-ethoxyphenyl)-5-(3-phenoxyphenyl)pentane]: the mortality at 500 ppm was 80 to 100% in test [1]; below 50% in [2]; 80 to 100% in test [3]; 80 to 100% in [6]; below 50% in [7]; 80 to 100% in [8]. Also, the mortality at 500 ppm in [9], in test [10] and in test [11] was 80 to 100% each time. Besides, the pest or weed control at 500 ppm in [4] was below 50%. Besides, the mortality at 250 µg/mL in [5] is below 50%.
For `Fc1cc(C(CCCc2cccc(Oc3ccccc3)c2)C(F)(F)F)cc(F)c1OC(F)(F)F` (racemic) [Compound 71, 1,1,1-Trifluoro-2-(3,5-difluoro-4-trifluoromethoxyphenyl)-5-(3-phenoxyphenyl)pentane], the mortality at 500 ppm is 80 to 100% in test [1]; below 50% in test [2]; 80 to 100% in test [3]; 50 to 79% in test [6]; below 50% in [7]; 80 to 100% in test [8]. Further, the mortality at 500 ppm in test [9] is below 50%; in test [10], below 50%; in [11], 80 to 100%. In addition, the pest or weed control at 500 ppm in [4] was below 50%. Further, the mortality at 250 µg/mL in test [5] is 70 to 100%.

Usually mortality stands for the percentage killed.

Source of the values: US4791139A, “Diphenyl ether derivatives and their use as insecticides” (Imperial Chemical Industries PLC, priority 1986, dated 1988).
